Measured values reported in US7323458B1, “Dihydrobenzodiazepins and their use for treating dyslipidemia” (Merck Patent Gesellschaft Mit Beschrankter Haftung, priority 1999, dated 2008).

Key:
secretion of apo CIII = experiment: Reduction of apo CIII secretion by Hep G2 human hepatocytes in culture (ELISA); format: cell-based; conditions: HepG2, Hep G2 cells, 24 hours incubation, read-out: concentration which gives a 50% inhibition of the secretion of Apo CIII
Description: The hypolipidaemiant activity of the compounds of the invention result from their ability to reduce the secretion of apo CIII.
The Hep G2 cell line is derived from a human hepatic carcinoma (ref. ECACC No. 85011430).
The cells are cultured at 37° C., 5% CO2 in 96-well microtitration plates at a rate of 40 000 cells (200 μl) per well in a DMEM buffer, 10% foetal calf serum, 1% Glutamax+antibiotics, for 24 hours. […] The cells are incubated for 24 hours at 37° C., 5% CO2 and the medium is then removed.
The amount of apolipoprotein CIII secreted into the medium is measured by means of an assay of ELISA type. Each sample of culture medium is diluted 5-fold in a 100 mM phosphate buffer, 1% BSA. […]
The optical density is read directly using a spectrophotometer at 492 nm. The amount of Apo CIII is calculated relative to a calibration curve produced using an assayed human serum of Apo CIII and diluted under the same conditions as the Apo CIII contained in the culture medium. […]
The active substances bring about a reduction in the secretion of Apo CIII into the medium by the adherent cells. The concentration of Apo CIII is measured for each treatment and compared with the control test (no treatment).
The percentage of inhibition is calculated according to: […]
(§1) The percentage of inhibition is calculated only for the substances that show no toxicity on the Hep G2 cells.

Hep G2 cells = experiment: Toxicity on the cells by staining with neutral red; format: cell-based, human; conditions: for the concentrations studied
Description: In the absence of a chemical treatment, the response of the cells is 100% (0% inhibition). Under the conditions used, the effect of DMSO on the cells is negligible. The toxicity of the chemical substances on the cells is measured by the technique of staining with neutral red.
as §1

Structure (SMILES)	melting point	IC50 (secretion of apo CIII)	cell toxicity (Hep G2 cells)
CC1=CSC2=Nc3ccccc3CCN12 [Example 50]	194 to 196 °C		
C1=C(c2ccc(Oc3ccccc3)cc2)N2CCc3ccccc3N=C2S1 [Example 67]	204 to 205 °C		
C1=C(c2ccc3ccccc3c2)N2CCc3ccccc3N=C2S1 [Example 47]	188.5 to 189.5 °C		
C1=C(c2ccc(-c3ccccc3)cc2)N2CCc3ccccc3N=C2S1 [Example 4, 3-(biphenyl-4-yl)-5,6-dihydrothiazolo[2,3-b]-1,3-benzodiazepine]		17.4 µM	No cell toxicity is observed
CCOC(=O)c1ccc(C2=CSC3=Nc4ccccc4CCN23)cc1 [Example 36, 3-[4-(ethoxycarbonyl)phenyl]-5,6-dihydro-thiazolo-[2,3-b]-1,3-benzodiazepine]	231 to 233 °C		
